According to ChEMBL document CHEMBL3352660, “Design, synthesis and pharmacological evaluation of novel polycyclic heteroarene ethers as PDE10A inhibitors: part II” (Bioorg Med Chem Lett, 2014):

Assays:
[1] = target: cGMP-inhibited 3',5'-cyclic phosphodiesterase 3A (Homo sapiens) (UniProt Q14432); test: Inhibition of human recombinant PDE3A using cAMP as substrate at 1 uM after 30 mins by HTRF method
[2] = Oral bioavailability in Swiss albino mouse at 10 mg/kg […]; assay type: ADME, organism-based; conditions: in vivo

Chain of cGMP-inhibited 3',5'-cyclic phosphodiesterase 3A (Homo sapiens) (Q14432 whole entry): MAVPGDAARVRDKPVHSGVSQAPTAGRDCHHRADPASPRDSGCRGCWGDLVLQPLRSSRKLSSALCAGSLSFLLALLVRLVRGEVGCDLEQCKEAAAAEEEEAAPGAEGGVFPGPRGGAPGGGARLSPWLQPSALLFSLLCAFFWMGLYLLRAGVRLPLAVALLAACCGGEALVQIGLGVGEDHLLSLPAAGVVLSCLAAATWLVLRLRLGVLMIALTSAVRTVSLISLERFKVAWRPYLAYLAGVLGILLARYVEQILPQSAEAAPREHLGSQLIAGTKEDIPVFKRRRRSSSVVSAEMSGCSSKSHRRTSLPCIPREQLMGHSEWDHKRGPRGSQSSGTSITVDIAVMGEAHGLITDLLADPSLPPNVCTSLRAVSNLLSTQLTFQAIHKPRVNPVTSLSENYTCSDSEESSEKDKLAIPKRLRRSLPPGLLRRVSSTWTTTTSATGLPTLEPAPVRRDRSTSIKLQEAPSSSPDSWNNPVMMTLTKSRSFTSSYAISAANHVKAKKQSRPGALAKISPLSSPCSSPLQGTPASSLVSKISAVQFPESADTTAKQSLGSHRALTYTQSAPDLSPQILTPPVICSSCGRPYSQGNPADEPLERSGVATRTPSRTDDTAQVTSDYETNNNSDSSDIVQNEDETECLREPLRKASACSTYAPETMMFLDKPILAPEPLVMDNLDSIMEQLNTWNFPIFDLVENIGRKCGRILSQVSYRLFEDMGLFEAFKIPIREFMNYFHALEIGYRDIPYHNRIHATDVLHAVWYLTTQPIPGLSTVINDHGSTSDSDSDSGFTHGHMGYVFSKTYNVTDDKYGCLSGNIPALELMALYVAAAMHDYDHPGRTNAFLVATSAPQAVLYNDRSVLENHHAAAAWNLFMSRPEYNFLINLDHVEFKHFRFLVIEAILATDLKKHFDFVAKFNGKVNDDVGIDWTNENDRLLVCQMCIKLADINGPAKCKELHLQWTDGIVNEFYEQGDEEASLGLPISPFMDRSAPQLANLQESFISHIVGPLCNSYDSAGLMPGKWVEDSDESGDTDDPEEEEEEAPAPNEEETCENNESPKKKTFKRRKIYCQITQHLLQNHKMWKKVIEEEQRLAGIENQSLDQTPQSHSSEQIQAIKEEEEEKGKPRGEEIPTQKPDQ

inhibition [1]: 0%
bioavailability [2]: 8%
Structure (SMILES): Cn1cc(-c2ccc(Oc3nccnc3-c3ccncc3)cc2)c2ncccc21
